# Reference: patent US8859535B2, “Hydroxy substituted isoquinolinone derivatives” (Novartis AG, priority 2011, dated 2014)
# How the values were obtained:
# [1] = target: T1, human MDM2 protein (amino acids 2-188) (Homo sapiens, UniProt Q00987); assay: p53-MDM2 TR-FRET assay (p53-MDM2 Assay 1); type: binding; conditions: 1.25 nM MDM2-biotinylated, 10 nM Cy5-p53 peptide; read-out: IC50 (μM) of p53-Hdm2 inhibition (TR-FRET) Assay 1
# T1 construct: human MDM2 protein (amino acids 2-188); made in house
# Procedure: (§1) Time Resolved Fluorescence Energy Transfer (TR-FRET) Assay
# (§2) The inhibition of p53-MDM2 and p53-MDM4 interactions is measured by time resolved fluorescence energy transfer (TR-FRET). Fluorescence energy transfer (or Foerster resonance energy transfer) describes an energy transfer between donor and acceptor fluorescent molecules. For this assay, human MDM2 protein (amino acids 2-188) and human MDM4 protein (amino acids 2-185), tagged with a C-terminal biotin moiety, are used in combination with a Europium labeled streptavidin (Perkin Elmer, Inc., Waltham, Mass., USA) serving as the donor fluorophore. The p53 derived, Cy5 labeled peptide Cy5-TFSDLWKLL (p53 aa18-26) is the energy acceptor. Upon excitation of the donor molecule at 340 nm, binding interaction between MDM2 or MDM4 and the p53 peptide induces energy transfer and enhanced response at the acceptor emission wavelength at 665 nm. Disruption of the formation of the p53-MDM2 or p53-MDM4 complex due to an inhibitor molecule binding to the p53 binding site of MDM2 or MDM4 results in increased donor emission at 620 nm. The ratiometric FRET assay readout is calculated from the raw data of the two distinct fluorescence signals measured in time resolved mode (fluorescence 665 nm/fluorescence 620 nm×1000).
# (§3) After addition of 1.25 nM MDM2-biotinylated or 2.5 nM MDM4-biotinylated (internal preparations), and 0.625 nM Europium labeled streptavidin (Perkin Elmer), the solution is pre-incubated for 15 minutes at room temperature, then 10 nM Cy5-p53 peptide (internal preparation) is added before an incubation at room temperature for 15 minutes prior to reading the plate. For measurement of samples, a Victor II microplate reader (Perkin Elmer) is used with the following settings: Excitation 340 nm, Emission Donor 620 nm and Emission Acceptor 665 nm. IC50 values are calculated by curve fitting using XLfit. If not specified, reagents are purchased from Sigma-Aldrich Chemie GmBH, Buchs, Switzerland.
# (§4) This assay was used to evaluate compounds displaying inhibition of p53-MDM2 interaction and p53-MDM4 interaction at IC50s of 0.005 to 50 μM (p53-MDM2 Assay 1 and p53-MDM4 Assay 1, respectively). For selected compounds displaying IC50s between […] on MDM2, a slightly modified assay is used with the following adaptations: 0.1 nM MDM2, 0.1 nM Europium labeled streptavidin and Tecan genios Pro is used as a microplate reader for the fluorescence measurements (p53-MDM2 Assay 2).
# [2] = target: T2, human MDM4 protein (amino acids 2-185) (Homo sapiens, UniProt O15151); assay: p53-MDM4 TR-FRET assay (p53-MDM4 Assay 1); type: binding; conditions: 2.5 nM MDM4-biotinylated, 10 nM Cy5-p53 peptide; read-out: IC50 (μM) of p53-Hdm4 inhibition (TR-FRET) Assay 1
# T2 construct: human MDM4 protein (amino acids 2-185); made in house
# T2 sequence (O15151 2-185): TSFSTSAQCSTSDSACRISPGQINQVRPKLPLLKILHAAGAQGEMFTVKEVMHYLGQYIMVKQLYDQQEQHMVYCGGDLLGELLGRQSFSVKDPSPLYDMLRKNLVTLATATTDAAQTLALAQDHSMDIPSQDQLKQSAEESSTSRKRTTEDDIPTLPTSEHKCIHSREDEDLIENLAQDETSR
# Procedure: as §1, §2, §3, §4
# T1 sequence (Q00987 2-188): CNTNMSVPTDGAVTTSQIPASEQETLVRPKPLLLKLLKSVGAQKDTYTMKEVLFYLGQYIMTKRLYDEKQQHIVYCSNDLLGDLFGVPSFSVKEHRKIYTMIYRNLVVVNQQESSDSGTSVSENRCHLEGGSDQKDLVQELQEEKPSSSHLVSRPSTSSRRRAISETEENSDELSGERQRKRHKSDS
Compound,IC50 [1] [µM],IC50 [2] [µM]
"COc1cc2c(cc1OC(C)C)[C@H](c1ccc(Cl)cc1)N(c1ccc([C@](C)(O)C3CCC(F)(F)CC3)cc1)C(=O)C2 (single isomer, unassigned) [Example 46]",0.422,
"COc1cc2c(cc1OC(C)C)[C@H](c1ccc(Cl)cc1)N(c1ccc([C@](C)(O)C34CC5CC(CC(C5)C3)C4)cc1)C(=O)C2 (single isomer, unassigned) [Example 143]",2.31,
"CCC(C)(O)c1ccc(N2C(=O)Cc3cc(OC)c(OC(C)C)cc3[C@@H]2c2ccc(Cl)cc2)cn1 (stereo partly drawn) [Example 9, (S)-1-(4-Chloro-phenyl)-2-[6-(1-hydroxy-1-methyl-propyl)-pyridin-3-yl]-7-isopropoxy-6-methoxy-1,4-dihydro-2H-isoquinolin-3-one]",0.459,
"CCC(C)(O)c1ccc(N2C(=O)Cc3cc(OC)c(OC(C)C)cc3[C@@H]2c2ccc(Cl)cc2)nc1 (stereo partly drawn) [Example 10, (S)-1-(4-Chloro-phenyl)-2-[5-(1-hydroxy-1-methyl-propyl)-pyridin-2-yl]-7-isopropoxy-6-methoxy-1,4-dihydro-2H-isoquinolin-3-one]",0.247,
"COc1cc2c(cc1OC(C)C)[C@H](c1ccc(Cl)cc1)N(c1ccc(C(C)(O)CCO)cc1)C(=O)C2 (stereo partly drawn) [Example 41, (S)-1-(4-Chloro-phenyl)-2-[4-(1,3-dihydroxy-1-methyl-propyl)-phenyl]-7-isopropoxy-6-methoxy-1,4-dihydro-2H-isoquinolin-3-one]",0.247,
"COc1ccc(C(O)(CO)c2ccc(N3C(=O)Cc4cc(OC)c(OC(C)C)cc4[C@@H]3c3ccc(Cl)cc3)cc2)cc1 (stereo partly drawn) [Example 44, (S)-1-(4-Chloro-phenyl)-2-{4-[1,2-dihydroxy-1-(4-methoxy-phenyl)-ethyl]-phenyl}-7-isopropoxy-6-methoxy-1,4-dihydro-2H-isoquinolin-3-one]",0.0982,
"COc1cc2c(cc1OC(C)C)[C@H](c1ccc(Cl)cc1)N(c1ccc(C3(O)CNC3)cc1)C(=O)C2 [Example 56, (S)-1-(4-Chloro-phenyl)-2-[4-(3-hydroxy-azetidin-3-yl)-phenyl]-7-isopropoxy-6-methoxy-1,4-dihydro-2H-isoquinolin-3-one]",0.811,
"COc1cc2c(cc1OC(C)C)[C@H](c1ccc(Cl)cc1)N(c1ccc(C3(O)CN(C(C)=O)C3)cc1)C(=O)C2 [Example 57, (S)-2-[4-(1-Acetyl-3-hydroxy-azetidin-3-yl)-phenyl]-1-(4-chloro-phenyl)-7-isopropoxy-6-methoxy-1,4-dihydro-2H-isoquinolin-3-one]",0.262,
"COC(=O)N1CC(O)(c2ccc(N3C(=O)Cc4cc(OC)c(OC(C)C)cc4[C@@H]3c3ccc(Cl)cc3)cc2)C1 [Example 58, 3-{4-[(S)-1-(4-Chloro-phenyl)-7-isopropoxy-6-methoxy-3-oxo-3,4-dihydro-1H-isoquinolin-2-yl]-phenyl}-3-hydroxy-azetidine-1-carboxylic acid methyl ester]",0.205,
"COc1cc2c(cc1OC(C)C)[C@H](c1ccc(Cl)cc1)N(c1ccc(C3(O)CN(C(=O)N(C)C)C3)cc1)C(=O)C2 [Example 59, 3-{4-[(S)-1-(4-Chloro-phenyl)-7-isopropoxy-6-methoxy-3-oxo-3,4-dihydro-1H-isoquinolin-2-yl]-phenyl}-3-hydroxy-azetidine-1-carboxylic acid dimethylamide]",0.167,
"COc1cc2c(cc1OC(C)C)[C@H](c1ccc(Cl)cc1)N(c1ccc(C3(O)CN(C(=O)C4CC4)C3)cc1)C(=O)C2 [Example 61, (S)-1-(4-Chloro-phenyl)-2-[4-(1-cyclopropanecarbonyl-3-hydroxy-azetidin-3-yl)-phenyl]-7-isopropoxy-6-methoxy-1,4-dihydro-2H-isoquinolin-3-one]",0.156,
"COc1cc2c(cc1OC(C)C)[C@H](c1ccc(Cl)cc1)N(c1ccc(C(C)(O)C3C4CC5CC(C4)CC3C5)cc1)C(=O)C2 (stereo partly drawn) [Example 144, (S)-2-[4-(1-Adamantan-2-yl-1-hydroxy-ethyl)-phenyl]-1-(4-chloro-phenyl)-7-isopropoxy-6-methoxy-1,4-dihydro-2H-isoquinolin-3-one]",0.123,

# Stronger by IC50 [1], values ahead:
IC50 [1] [µM],IC50 [2] [µM],Compound
0.0071,10.4,"COc1cc2c(cc1OC(C)C)[C@H](c1ccc(Cl)cc1)N(c1ccc(C(C)(O)c3ccc(NC(C)=O)cc3)cc1)C(=O)C2 (mixture of isomers) [Example 21, N-[4-(1-{4-[(S)-1-(4-Chloro-phenyl)-7-isopropoxy-6-methoxy-3-oxo-3,4-dihydro-1H-isoquinolin-2-yl]-phenyl}-1-hydroxy-ethyl)-phenyl]-acetamide]"
0.0037,4.06,"COc1cc2c(cc1OC(C)C)[C@H](c1ccc(Cl)cc1)N(c1ccc(C(C)(O)C3CCOCC3)cc1)C(=O)C2 (mixture of isomers) [Example 30, (S)-1-(4-Chloro-phenyl)-2-{4-[1-hydroxy-1-(tetrahydro-pyran-4-yl)-ethyl]-phenyl}-7-isopropoxy-6-methoxy-1,4-dihydro-2H-isoquinolin-3-one]"
0.0051,5.23,"COc1cc2c(cc1OC(C)C)[C@H](c1ccc(Cl)cc1)N(c1ccc(C(C)(O)C3CCN(C)CC3)cc1)C(=O)C2 (mixture of isomers) [Example 34, (S)-1-(4-Chloro-phenyl)-2-{4-[1-hydroxy-1-(1-methyl-piperidin-4-yl)-ethyl]-phenyl}-7-isopropoxy-6-methoxy-1,4-dihydro-2H-isoquinolin-3-one]"
0.0025,1.48,"COc1cc2c(cc1OC(C)C)[C@H](c1ccc(Cl)cc1)N(c1ccc(C(C)(O)C3CCOCC3)c(F)c1)C(=O)C2 (mixture of isomers) [Example 35, (S)-1-(4-Chloro-phenyl)-2-{3-fluoro-4-[1-hydroxy-1-(tetrahydro-pyran-4-yl)-ethyl]-phenyl}-7-isopropoxy-6-methoxy-1,4-dihydro-2H-isoquinolin-3-one]"
0.00815,7.61,"COc1cc2c(cc1OC(C)C)[C@H](c1ccc(Cl)cc1)N(c1ccc(C(C)(O)C34CCC(CC3)O4)cc1)C(=O)C2 (mixture of isomers) [Example 135, (S)-1-(4-Chloro-phenyl)-2-{4-[1-hydroxy-1-(7-oxa-bicyclo[2.2.1]hept-1-yl)-ethyl]-phenyl}-7-isopropoxy-6-methoxy-1,4-dihydro-2H-isoquinolin-3-one]"
0.0079,8.05,"COc1cc2c(cc1OC(C)C)[C@H](c1ccc(Cl)cc1)N(c1ccc(C(C)(O)C3CC4CCC(C3)S4(=O)=O)cc1)C(=O)C2 (mixture of isomers) [Example 172, (S)-1-(4-Chloro-phenyl)-2-{4-[1-(8,8-dioxo-8-thia-bicyclo[3.2.1]oct-3-yl)-1-hydroxy-ethyl]-phenyl}-7-isopropoxy-6-methoxy-1,4-dihydro-2H-isoquinolin-3-one]"
0.0723,,"COc1cc2c(cc1OC(C)C)[C@H](c1ccc(Cl)cc1)N(c1ccc(C(C)(O)c3cccnc3)cc1F)C(=O)C2 (stereo partly drawn) [Example 20, (S)-1-(4-Chloro-phenyl)-2-[2-fluoro-4-(1-hydroxy-1-pyridin-3-yl-ethyl)-phenyl]-7-isopropoxy-6-methoxy-1,4-dihydro-2H-isoquinolin-3-one]"
0.0251,,"COc1cc2c(cc1OC(C)C)[C@H](c1ccc(Cl)cc1)N(c1ccc(C(C)(O)C34CC5CC(CC(C5)C3)C4)cc1)C(=O)C2 (stereo partly drawn) [Example 141, (S)-2-[4-(1-Adamantan-1-yl-1-hydroxy-ethyl)-phenyl]-1-(4-chloro-phenyl)-7-isopropoxy-6-methoxy-1,4-dihydro-2H-isoquinolin-3-one]"
